Reference: PubChem BioAssay (NCI)
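These data come from cells grown in 96-well plates and exposed to compound for 48 hours at five concentrations. GI50 = concentration required for 50% inhibition of growth. TGI: total growth inhibition.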

What was measured:
Assay in all cases: DTP human tumour cell line panel, 48 h
[1] = tested on: 786-0 renal
[2] = tested on: A498 renal
[3] = tested on: A549 NSCLC
[4] = tested on: ACHN renal
[5] = tested on: CAKI-1 renal
[6] = tested on: CCRF-CEM leukemia
[7] = tested on: COLO 205 colon
[8] = tested on: DU-145 prostate
[9] = tested on: HCC-2998 colon
[10] = tested on: HCT-116 colon
[11] = tested on: HCT-15 colon
[12] = tested on: HL-60(TB) leukemia
[13] = tested on: HOP-62 NSCLC
[14] = tested on: HOP-92 NSCLC
[15] = tested on: HS 578T breast
[16] = tested on: HT29 colon
[17] = tested on: IGROV1 ovarian
[18] = tested on: K-562 leukemia
[19] = tested on: KM12 colon
[20] = tested on: LOX IMVI melanoma
[21] = tested on: M14 melanoma
[22] = tested on: MALME-3M melanoma
[23] = tested on: MCF7 breast
[24] = tested on: MDA-MB-231 breast
[25] = tested on: MDA-MB-435
[26] = tested on: MOLT-4 leukemia
[27] = tested on: NCI-H226 lung
[28] = tested on: NCI-H23 lung
[29] = tested on: NCI-H460 lung
[30] = tested on: NCI/ADR-RES ovarian
[31] = tested on: OVCAR-3 ovarian
[32] = tested on: OVCAR-4 ovarian
[33] = tested on: OVCAR-5 ovarian
[34] = tested on: OVCAR-8 ovarian
[35] = tested on: PC-3 prostate
[36] = tested on: RPMI-8226 leukemia
[37] = tested on: SF-268 CNS
[38] = tested on: SF-295 CNS
[39] = tested on: SF-539 CNS
[40] = tested on: SK-MEL-2 melanoma
[41] = tested on: SK-MEL-28 melanoma
[42] = tested on: SK-MEL-5 melanoma
[43] = tested on: SK-OV-3 ovarian
[44] = tested on: SN12C renal
[45] = tested on: SNB-19 CNS
[46] = tested on: SNB-75 CNS
[47] = tested on: SR leukemia
[48] = tested on: SW-620 colon
[49] = tested on: T-47D breast
[50] = tested on: TK-10 renal
[51] = tested on: U251 CNS
[52] = tested on: UACC-257 melanoma
[53] = tested on: UACC-62 melanoma
[54] = tested on: UO-31 renal
[55] = tested on: BT-549 breast
[56] = tested on: EKVX NSCLC
[57] = tested on: NCI-H522 lung
[58] = tested on: RXF 393 renal

CC(C)=CCC/C(C)=C/CC/C(C)=C/CSC[C@H](NC(=O)CCCCCN1CCN(C)CC1)C(=O)NC1CCCCCC1
GI50 [1]: 1770 nM
TGI [1]: 3.19 µM
GI50 [2]: 3.76 µM
TGI [2]: 16.7 µM
GI50 [3]: 2500 nM
TGI [3]: 7.4 µM
GI50 [4]: 1750 nM
TGI [4]: 3.21 µM
GI50 [5]: 2840 nM
TGI [5]: 9.19 µM
GI50 [6]: 2350 nM
TGI [6]: 7.07 µM
GI50 [7]: 1850 nM
TGI [7]: 3.63 µM
GI50 [8]: 1930 nM
TGI [8]: 3.52 µM
GI50 [9]: 1840 nM
TGI [9]: 3.61 µM
GI50 [10]: 1710 nM
TGI [10]: 3.16 µM
GI50 [11]: 1940 nM
TGI [11]: 3.93 µM
GI50 [12]: 1980 nM
TGI [12]: 4.14 µM
GI50 [13]: 4.42 µM
TGI [13]: 19.3 µM
GI50 [14]: 2300 nM
TGI [14]: 8.39 µM
GI50 [15]: 1950 nM
TGI [15]: 4.53 µM
GI50 [16]: 2190 nM
TGI [16]: 4.74 µM
GI50 [17]: 2360 nM
TGI [17]: 5.31 µM
GI50 [18]: 2240 nM
TGI [18]: 5.14 µM
GI50 [19]: 1970 nM
TGI [19]: 3.86 µM
GI50 [20]: 1760 nM
TGI [20]: 3.29 µM
GI50 [21]: 1730 nM
TGI [21]: 3.43 µM
GI50 [22]: 1940 nM
TGI [22]: 3.56 µM
GI50 [23]: 2120 nM
TGI [23]: 4.79 µM
GI50 [24]: 1930 nM
TGI [24]: 3.86 µM
GI50 [25]: 1850 nM
TGI [25]: 3.43 µM
GI50 [26]: 2690 nM
TGI [26]: 7.48 µM
GI50 [27]: 11.6 µM
TGI [27]: 38.4 µM
GI50 [28]: 3.01 µM
TGI [28]: 8.78 µM
GI50 [29]: 1930 nM
TGI [29]: 3.69 µM
GI50 [30]: 3.89 µM
TGI [30]: 14.6 µM
GI50 [31]: 2060 nM
TGI [31]: 4.1 µM
GI50 [32]: 3.21 µM
TGI [32]: 13.1 µM
GI50 [33]: 1840 nM
TGI [33]: 3.6 µM
GI50 [34]: 3.33 µM
TGI [34]: 12.2 µM
GI50 [35]: 1890 nM
TGI [35]: 4.31 µM
GI50 [36]: 1980 nM
TGI [36]: 4.67 µM
GI50 [37]: 2020 nM
TGI [37]: 4.03 µM
GI50 [38]: 1750 nM
TGI [38]: 3.38 µM
GI50 [39]: 1890 nM
TGI [39]: 3.38 µM
GI50 [40]: 2240 nM
TGI [40]: 4.42 µM
GI50 [41]: 1700 nM
TGI [41]: 3.32 µM
GI50 [42]: 1770 nM
TGI [42]: 3.18 µM
GI50 [43]: 5.16 µM
TGI [43]: 17.1 µM
GI50 [44]: 2050 nM
TGI [44]: 4.51 µM
GI50 [45]: 2020 nM
TGI [45]: 4.43 µM
GI50 [46]: 1530 nM
TGI [46]: 4.22 µM
GI50 [47]: 1980 nM
TGI [47]: 5.35 µM
GI50 [48]: 1870 nM
TGI [48]: 3.88 µM
GI50 [49]: 2220 nM
TGI [49]: 6.45 µM
GI50 [50]: 4.4 µM
TGI [50]: 9.11 µM
GI50 [51]: 1730 nM
TGI [51]: 3.19 µM
GI50 [52]: 1850 nM
TGI [52]: 3.63 µM
GI50 [53]: 1780 nM
TGI [53]: 3.44 µM
GI50 [54]: 1580 nM
TGI [54]: 3.22 µM

CCOc1ccc(/C=C2\N=C(c3ccccc3)OC2=O)cc1
TGI [3]: > 100 µM
TGI [4]: > 100 µM
TGI [55]: > 100 µM
TGI [6]: > 100 µM
TGI [56]: > 100 µM
TGI [9]: > 100 µM
TGI [11]: > 100 µM
TGI [12]: > 100 µM
TGI [13]: > 100 µM
TGI [14]: > 100 µM
TGI [15]: > 100 µM
TGI [16]: > 100 µM
TGI [17]: > 100 µM
TGI [18]: > 100 µM
TGI [19]: > 100 µM
TGI [21]: > 100 µM
TGI [23]: > 100 µM
TGI [25]: > 100 µM
TGI [26]: > 100 µM
TGI [27]: > 100 µM
TGI [28]: > 100 µM
TGI [29]: > 100 µM
TGI [57]: > 100 µM
TGI [30]: > 100 µM
TGI [31]: > 100 µM
TGI [32]: > 100 µM
TGI [33]: > 100 µM
TGI [34]: > 100 µM
TGI [35]: > 100 µM
TGI [36]: > 100 µM
TGI [58]: > 100 µM
TGI [37]: > 100 µM
TGI [38]: > 100 µM
TGI [39]: > 100 µM
TGI [40]: > 100 µM
TGI [41]: > 100 µM
TGI [42]: > 100 µM
TGI [43]: > 100 µM
TGI [45]: > 100 µM
TGI [46]: > 100 µM
TGI [47]: > 100 µM
TGI [48]: > 100 µM
TGI [50]: > 100 µM
TGI [51]: > 100 µM
TGI [52]: > 100 µM
TGI [53]: > 100 µM
TGI [54]: > 100 µM

c1ccc(-c2c(-c3ccccc3)[n+](Cc3ccc4ccccc4c3)cn2Cc2ccc3ccccc3c2)cc1
GI50 [4]: 1470 nM
TGI [4]: 2.9 µM
GI50 [14]: 122 nM
TGI [14]: 1.26 µM
GI50 [15]: 1740 nM
TGI [15]: 4.91 µM
GI50 [30]: 2.13 µM
TGI [30]: 5.12 µM

COCCN(C(=O)c1ccccc1)C1CCC2(SCCS2)c2[nH]c3ccccc3c21 (centres undefined)
TGI [1]: > 100 µM
TGI [2]: > 100 µM
TGI [3]: 68.2 µM
TGI [4]: > 100 µM
TGI [5]: > 100 µM
TGI [6]: > 100 µM
TGI [7]: > 100 µM
TGI [8]: > 100 µM
TGI [56]: > 100 µM
TGI [9]: > 100 µM
TGI [10]: > 100 µM
TGI [11]: > 100 µM
TGI [12]: 55.2 µM
TGI [13]: > 100 µM
TGI [14]: 78 µM
TGI [15]: > 100 µM
TGI [16]: > 100 µM
TGI [17]: > 100 µM
TGI [18]: > 100 µM
TGI [19]: > 100 µM
TGI [20]: > 100 µM
TGI [22]: > 100 µM
TGI [23]: > 100 µM
TGI [24]: > 100 µM
TGI [25]: 69.6 µM
TGI [26]: 69.4 µM
TGI [27]: > 100 µM
TGI [28]: > 100 µM
TGI [29]: > 100 µM
TGI [57]: 98.8 µM
TGI [30]: > 100 µM
TGI [31]: > 100 µM
TGI [33]: > 100 µM
TGI [34]: > 100 µM
TGI [35]: 59.3 µM
TGI [36]: 61.8 µM
TGI [58]: 87.7 µM
TGI [37]: > 100 µM
TGI [38]: > 100 µM
TGI [39]: > 100 µM
TGI [41]: > 100 µM
TGI [42]: > 100 µM
TGI [44]: > 100 µM
TGI [45]: > 100 µM
TGI [46]: > 100 µM
TGI [47]: > 100 µM
TGI [48]: > 100 µM
TGI [50]: > 100 µM
TGI [51]: > 100 µM
TGI [52]: > 100 µM
TGI [54]: > 100 µM
